Assay results: article PMC10020809, “A Phase Ib/II Study of WNT974 + Encorafenib + Cetuximab in Patients With BRAF ^V600E-Mutant KRAS Wild-Type Metastatic Colorectal Cancer” (The Oncologist, 2023)
Marks after values point to notes of the source that are not given here.

Experiments:
[1] = Plasma pharmacokinetics, noncompartmental; type: in vivo, human; conditions: for t 1/2 / AUC(0-t) / AUC / Cmax / half-life: mean (SD); for AUC(0-t) / AUC / Cmax / half-life / Tmax: human, plasma, oral
Experimental: To assess plasma concentrations of WNT974, its active metabolite LHA333, and encorafenib, serial blood samples were collected on days 1 and 15 of cycle 1, and pre-dose blood samples were collected on days 2, 8, 16, and 22 of cycle 1, and on day 1 of cycles 2, 3, and 4. PK parameters were determined using noncompartmental methods. The PK analysis set included all patients with at least one available valid PK concentration measurement who received at least one dose of study drug.

[2] = system: CRC preclinical models; set-up: method as in PMID 31233627, PMID 28695896, PMID 23847203; conditions: in vitro and in vivo; cited from earlier work
[3] = system: patients with advanced solid tumors; set-up: method as in PMID 33941878; conditions: cited from earlier work
[4] = system: patients with BRAF V600E-mutant mCRC with RNF43 mutations or RSPO fusions; test: Safety: adverse events (CTCAE v4.03), phase Ib; conditions: human, in vivo
Experimental: Patients who developed hypercalcemia (any grade) were treated with bisphosphonates per institutional standards.
The primary endpoints of the phase Ib study were the incidence of DLTs and exposure to WNT974 and encorafenib as measured by PK parameters. A DLT was defined as an AE or abnormal laboratory value assessed as unrelated to disease, disease progression, intercurrent illness, or concomitant medications that occurred within the first 28 days of treatment with WNT974 + encorafenib + cetuximab. The secondary endpoints for this study included the objective response rate (ORR; RECIST 1.1), disease control rate (DCR), and frequency and severity of AEs (Common Terminology Criteria for Adverse Events v4.03).
Tumor assessments were performed at baseline (screening) and every 6 weeks after starting study treatment until disease progression, initiation of subsequent antineoplastic therapy, or death, whichever occurred first. End-of-treatment tumor assessment was conducted within 14 days of receiving the last dose or treatment discontinuation. Safety was assessed throughout the study and included physical examinations, vital signs, weight, performance status evaluation, laboratory evaluations, dermatologic evaluations, ophthalmological examinations, bone loss assessments, cardiac assessments, and documentation of all non-serious and serious AEs (SAEs). […]

[5] = system: patients with advanced solid tumors; HER2-negative breast cancer or pancreatic cancer; conditions: in vivo; cited from earlier work
[6] = 200 mg, All cohorts, encorafenib 200 mg once daily, day 15 of cycle 1, plasma
[7] = COMBO5, day 15 of cycle 1, plasma
[8] = COMBO7.5, day 15 of cycle 1, plasma
[9] = COMBO10, day 15 of cycle 1, plasma

For `COC(=O)N[C@@H](C)CNc1nccc(-c2cn(C(C)C)nc2-c2cc(Cl)cc(NS(C)(=O)=O)c2F)n1` [Encorafenib, encorafenib], the “t 1/2” value ([1]; All cohorts, encorafenib 200 mg once daily, day 15 of cycle 1, plasma) was 4.29 (2.42)^b h, the T max ([1]; All cohorts, encorafenib 200 mg once daily, day 15 of cycle 1, plasma, median (range)) was 1.95 (0.48-7.17) h and the “Mean AUC and maximum plasma drug concentration across treatment combinations” value ([1]; day 15 of cycle 1) was “generally comparable across all treatment combinations”. It also gave an AUC(0-t) ([1]; 200 mg, All cohorts (N = 17), encorafenib 200 mg once daily, day 15 of cycle 1, plasma) of 13700 ng·h/mL, an AUC [1, 6] of 13800 ng·h/mL and a Cmax [1, 6] of 2840 ng/mL. The half-life [1, 6] was 4.3 h and the Tmax ([1]; 200 mg, All cohorts, encorafenib 200 mg once daily, day 15 of cycle 1, plasma, median (range)) was roughly 2 h.

In the case of `Cc1cc(-c2ncc(CC(=O)Nc3ccc(-c4cnccn4)cn3)cc2C)ccn1` [WNT974], the “t 1/2” value [1, 7] is reported as 4.74 (2.17) h, the “t 1/2” value [1, 8] is reported as 5.37 (0.697) h and the “Dose dependence of mean AUC” value ([1]; WNT974 5, 7.5, 10 mg, day 15 of cycle 1) is reported as “increased in a dose-proportional manner”. It also gave an AUC(0-t) ([1]; COMBO5 (5 mg WNT974 once daily + encorafenib + cetuximab), day 15 of cycle 1, plasma) of 220 ng·h/mL, an AUC [1, 7] of 227 ng·h/mL and a Cmax [1, 7] of 51 ng/mL. The half-life [1, 7] was 4.7 h, the Tmax ([1]; COMBO5, day 15 of cycle 1, plasma, median (range)) was 1 h and the AUC(0-t) ([1]; COMBO7.5 (7.5 mg WNT974 once daily + encorafenib + cetuximab), day 15 of cycle 1, plasma) was 384 ng·h/mL. It also gave an AUC [1, 8] of 384 ng·h/mL, a Cmax [1, 8] of 93.4 ng/mL and a half-life [1, 8] of 5.4 h. The Tmax ([1]; COMBO7.5, day 15 of cycle 1, plasma, median (range)) was 1.02 h, the AUC(0-t) ([1]; COMBO10 (10 mg WNT974 once daily + encorafenib + cetuximab), day 15 of cycle 1, plasma) was 460 ng·h/mL and the AUC [1, 9] was 542 ng·h/mL. For the same molecule, the Cmax [1, 9] was 42.9 ng/mL, the half-life [1, 9] was 11 h and the Tmax ([1]; COMBO10, day 15 of cycle 1, plasma, median (range)) was 4 h. The Anti-tumor activity [2] was “demonstrated anti-tumor activity”, the “AE frequency: decreased appetite” value ([3]; across all doses) was 45.7% and the “AE frequency: dysgeusia” value ([3]; across all doses) was 50%. The “AE frequency: fatigue” value ([3]; across all doses) was 31.9%, the “AE frequency: nausea” value ([3]; across all doses) was 33.0% and the “AE frequency: vomiting” value ([3]; across all doses) was 30.9%. The “Bone-related toxicities considered related to the study treatment” value [3] was 5, the “Number of bone-related toxicities” value [3] was 7 and the “Patients who experienced bone-related toxicities” value [3] was 6 patients. For the same molecule, the “Reported serious AEs of bone fracture” value [4] was 6.

B1: vantictumab: an anti-Frizzled antibody, given with chemotherapy (antibody, chains of the INN, looked up, V domains shown)
VH: EVQLVESGGGLVQPGGSLRLSCAASGFTFSHYTLSWVRQAPGKGLEWVSVISGDGSYTYYADSVKGRFTISSDNSKNTLYLQMNSLRAEDTAVYYCARNFIKYVFANWGQGTLVTVSS
VL: DIELTQPPSVSVAPGQTARISCSGDNIGSFYVHWYQQKPGQAPVLVIYDKSNRPSGIPERFSGSNSGNTATLTISGTQAEDEADYYCQSYANTLSLVFGGGTKLTVL
For B1, the “Tolerability / bone safety in phase I trials” value [5] is given as “closed early due to high rates of bone fracture”.
